Source: PubChem BioAssay AID1918993 (Molecular Pharmacology Branch, DTP, NCI, 2023)
Several values for one entry are separate records, joined by “and”; a condition that tells them apart may be missing. Equal entries are not always repeated.

Tested on: 233499-124-R-J3-PDC complex spheroid growth
Experiment: Anticancer human tumor 233499-124-R-J3-PDC patient-derived colon adenocarcinoma cell line growth inhibition [AhR]
Details: for IC50: curve of first compound; for viability, T/C: stronger effect = lower value
Procedure, shortened: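 Complex tumor spheroids co-cultured with HUVEC and human MSC stroma; AhR antagonists tested in combination with standard-of-care and investigational agents. Top concentration at or near clinical Cmax (else 10 microM), half-log dilutions; growth expressed as percent test/control.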

[1] = second compound 0.1 µM, first compound 0.0316 µM
[2] = second compound 0.1 µM, first compound 0.1 µM
[3] = second compound 0.1 µM, first compound 0.316 µM
[4] = second compound 0.1 µM, first compound 1 µM
[5] = second compound 0.1 µM, first compound 3.16 µM
[6] = second compound 0.1 µM, first compound 10 µM
[7] = second compound 0.316 µM, first compound 0.0316 µM
[8] = second compound 0.316 µM, first compound 0.1 µM
[9] = second compound 0.316 µM, first compound 0.316 µM
[10] = second compound 0.316 µM, first compound 1 µM
[11] = second compound 0.316 µM, first compound 3.16 µM
[12] = second compound 0.316 µM, first compound 10 µM
[13] = second compound 1 µM, first compound 0.0316 µM
[14] = second compound 1 µM, first compound 0.1 µM
[15] = second compound 1 µM, first compound 0.316 µM
[16] = second compound 1 µM, first compound 1 µM
[17] = second compound 1 µM, first compound 3.16 µM
[18] = second compound 1 µM, first compound 10 µM
[19] = second compound 3.16 µM, first compound 0.0316 µM
[20] = second compound 3.16 µM, first compound 0.1 µM
[21] = second compound 3.16 µM, first compound 0.316 µM
[22] = second compound 3.16 µM, first compound 1 µM
[23] = second compound 3.16 µM, first compound 3.16 µM
[24] = second compound 3.16 µM, first compound 10 µM
[25] = second compound 10 µM, first compound 0.0316 µM
[26] = second compound 10 µM, first compound 0.1 µM
[27] = second compound 10 µM, first compound 0.316 µM
[28] = second compound 10 µM, first compound 1 µM
[29] = second compound 10 µM, first compound 3.16 µM
[30] = second compound 10 µM, first compound 10 µM
[31] = second compound 0.1 µM, first compound 0.00316 µM
[32] = second compound 0.1 µM, first compound 0.01 µM
[33] = second compound 0.316 µM, first compound 0.00316 µM
[34] = second compound 0.316 µM, first compound 0.01 µM
[35] = second compound 1 µM, first compound 0.00316 µM
[36] = second compound 1 µM, first compound 0.01 µM
[37] = second compound 3.16 µM, first compound 0.00316 µM
[38] = second compound 3.16 µM, first compound 0.01 µM
[39] = second compound 10 µM, first compound 0.00316 µM
[40] = second compound 10 µM, first compound 0.01 µM
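Further: spheroids exposed to agents for seven days before reading.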

Structure (SMILES)	IC50 (second compound 0.1 µM)	IC50 (second compound 0.316 µM)	IC50 (second compound 1 µM)	IC50 (second compound 3.16 µM)	IC50 (second compound 10 µM)	viability, T/C [1]	viability, T/C [2]	viability, T/C [3]	viability, T/C [4]	viability, T/C [7]	viability, T/C [8]	viability, T/C [9]	viability, T/C [10]	viability, T/C [13]	viability, T/C [14]	viability, T/C [15]	viability, T/C [19]	viability, T/C [20]	viability, T/C [25]	viability, T/C [26]	other results
Nc1ccn(C2OC(CO)C(O)C2(F)F)c(=O)n1 (stereo unspecified)	–	–	–	–	–	–	–	–	–	–	–	–	–	–	–	–	–	–	–	–	viability, T/C (compound 0.0316 µM): 108% and 76.6% and 99.2%; viability, T/C (compound 0.1 µM): 91.1% and 89.1% and 80.1%; viability, T/C (compound 0.316 µM): 75.9% and 48.8% and 61.6%; viability, T/C (compound 1 µM): 51.4% and 43.7% and 46.9%; viability, T/C (compound 3.16 µM): 45.5% and 50.5% and 62.4%; viability, T/C (compound 10 µM): 54.1% and 54.5% and 59.6%
CC1(C)CCC(CN2CCN(c3ccc(C(=O)NS(=O)(=O)c4ccc(NCC5CCOCC5)c([N+](=O)[O-])c4)c(Oc4cnc5[nH]ccc5c4)c3)CC2)=C(c2ccc(Cl)cc2)C1 + Cc1ccccc1N=Nc1ccc(NC(=O)c2ccnn2C)c(C)c1	> 10000 nM	8700 nM	9240 nM	7490 nM	7210 nM	94.8%	116%	102%	108%	111%	110%	97%	112%	104%	106%	97.6%	102%	97.7%	121%	99.3%	viability, T/C [5]: 117%; viability, T/C [6]: 51.5%; viability, T/C [11]: 118%; viability, T/C [12]: 41.8%; viability, T/C [16]: 122%; viability, T/C [17]: 122%; viability, T/C [18]: 45.5%; viability, T/C [21]: 104%; viability, T/C [22]: 99.4%; viability, T/C [23]: 113%; viability, T/C [24]: 32.2%; viability, T/C [27]: 112%; viability, T/C [28]: 107%; viability, T/C [29]: 109%; viability, T/C [30]: 26.6%
Nc1ncn(C2CC(O)C(CO)O2)c(=O)n1 (stereo unspecified) + CC(CO)NC(=O)c1cc(-c2ccc(Cl)cc2)nn(-c2cnn(C)c2)c1=O	> 1000 nM	> 1000 nM	> 1000 nM	> 1000 nM	> 1000 nM	104%	94.1%	93%	94.2%	79.4%	92.9%	91%	95.5%	88.9%	72.5%	85.6%	90.4%	89.5%	89.7%	97.7%	viability, T/C [31]: 103%; viability, T/C [32]: 103%; viability, T/C [33]: 98.2%; viability, T/C [34]: 103%; viability, T/C [35]: 92.3%; viability, T/C [36]: 94.5%; viability, T/C [16]: 91.9%; viability, T/C [37]: 95.9%; viability, T/C [38]: 104%; viability, T/C [21]: 87.1%; viability, T/C [22]: 83.2%; viability, T/C [39]: 89.2%; viability, T/C [40]: 79.9%; viability, T/C [27]: 85.9%; viability, T/C [28]: 93.2%
Cn1ncnc1C1c2n[nH]c(=O)c3cc(F)cc(c23)NC1c1ccc(F)cc1 (stereo unspecified) + Cc1cncc(-c2nc(NCCc3c[nH]c4ccccc34)c3ncn(C(C)C)c3n2)c1	> 100 nM	> 100 nM	> 100 nM	> 100 nM	< 0.316 nM	88.7%	101%	–	–	78.3%	96.2%	–	–	76.5%	91.4%	–	76.1%	71.3%	14.8%	18.6%	viability, T/C (second compound 0.1 µM, first compound 0.000316 µM): 93.4%; viability, T/C (second compound 0.1 µM, first compound 0.001 µM): 97.3%; viability, T/C [31]: 109%; viability, T/C [32]: 108%; viability, T/C (second compound 0.316 µM, first compound 0.000316 µM): 88.7%; viability, T/C (second compound 0.316 µM, first compound 0.001 µM): 81.3%; viability, T/C [33]: 93.5%; viability, T/C [34]: 87.3%; viability, T/C (second compound 1 µM, first compound 0.000316 µM): 79.4%; viability, T/C (second compound 1 µM, first compound 0.001 µM): 75.9%; viability, T/C [35]: 78.8%; viability, T/C [36]: 78%; viability, T/C (second compound 3.16 µM, first compound 0.000316 µM): 84.4%; viability, T/C (second compound 3.16 µM, first compound 0.001 µM): 81.2%; viability, T/C [37]: 73.2%; viability, T/C [38]: 66.6%; viability, T/C (second compound 10 µM, first compound 0.000316 µM): 23.2%; viability, T/C (second compound 10 µM, first compound 0.001 µM): 13.3%; viability, T/C [39]: 23.2%; viability, T/C [40]: 26.1%

Continued, in another order:

IC50 (second compound 0.1 µM)	IC50 (second compound 0.316 µM)	IC50 (second compound 1 µM)	IC50 (second compound 3.16 µM)	IC50 (second compound 10 µM)	Structure (SMILES)	viability, T/C [1]	viability, T/C [2]	viability, T/C [3]	viability, T/C [4]	viability, T/C [7]	viability, T/C [8]	viability, T/C [9]	viability, T/C [10]	viability, T/C [13]	viability, T/C [14]	viability, T/C [15]	viability, T/C [19]	viability, T/C [20]	viability, T/C [25]	viability, T/C [26]	other results
> 10000 nM	> 10000 nM	> 10000 nM	> 10000 nM	> 10000 nM	COc1cc(Nc2ncc3c(n2)-c2ccc(Cl)cc2C(c2c(F)cccc2OC)=NC3)ccc1C(=O)O + CC(CO)NC(=O)c1cc(-c2ccc(Cl)cc2)nn(-c2cnn(C)c2)c1=O	75.4%	74.5%	81%	91.4%	75.6%	73.6%	86.3%	77.2%	78.7%	76.9%	96%	57.9%	67.4%	58.8%	62.8%	viability, T/C [5]: 84.6%; viability, T/C [6]: 82.9%; viability, T/C [11]: 62.8%; viability, T/C [12]: 94%; viability, T/C [16]: 72.5%; viability, T/C [17]: 87.7%; viability, T/C [18]: 74%; viability, T/C [21]: 86.3%; viability, T/C [22]: 89.1%; viability, T/C [23]: 84.7%; viability, T/C [24]: 84.9%; viability, T/C [27]: 73.8%; viability, T/C [28]: 65.4%; viability, T/C [29]: 57.9%; viability, T/C [30]: 59.2%
4260 nM	2610 nM	1780 nM	1490 nM	< 31.6 nM	Nc1ccccc1NC(=O)c1ccc(CNC(=O)OCc2cccnc2)cc1 + Cc1cncc(-c2nc(NCCc3c[nH]c4ccccc34)c3ncn(C(C)C)c3n2)c1	89.4%	99.9%	92.6%	106%	93.8%	90%	80.7%	109%	80.4%	84.8%	71.9%	74%	77.7%	7.14%	7.87%	viability, T/C [5]: 65.9%; viability, T/C [6]: 4.68%; viability, T/C [11]: 41.3%; viability, T/C [12]: 2.94%; viability, T/C [16]: 93.9%; viability, T/C [17]: 17.1%; viability, T/C [18]: 1.34%; viability, T/C [21]: 78.6%; viability, T/C [22]: 74.6%; viability, T/C [23]: 4.12%; viability, T/C [24]: 0.26%; viability, T/C [27]: 7.4%; viability, T/C [28]: 1.13%; viability, T/C [29]: 0.78%; viability, T/C [30]: 0.29%
